The text below walks through data of patent US20090042905A1, “TRIAZOLE DERIVATIVES AS LIGANDS OF G-PROTEIN COUPLED RECEPTORS” (AETERNA ZENTARIS GmbH, priority 2007, published 2009).

Where two headings read alike, the source gives them in different places.

In the test the test system is male C57BL/6J mice. Put plainly: Fasting-induced feeding behavior (food intake) of mice. The conditions noted are these: oral dose 2 μmol per mouse, 30 min before food. In kind it is in vivo. As to the method: The effectiveness of selected compounds of the invention on fasting-induced feeding behavior of mice was investigated.
The experiments were performed according to Asakawa A et al. (Asakawa A et al., Gut 2003, 52: 947-952) with the following technical details:
Preparation of compounds of the invention: dissolved in dimethylsulfoxide (DMSO) and then diluted in distilled water (i.e. 0.5, 1 and 10% DMSO for 0.5, 1 and 2 μmol/mouse, respectively);
Preparation of reference substance (positive control) sibutramine: dissolved in distilled water;
Control substance (negative vehicle control): 10% DMSO in distilled water (compounds of the invention); distilled water (sibutramine);
Route of administration: p.o.;
Pretreatment time: 30 min before presenting the food to the animals;
Volume of administration: 0.5 ml/mouse;
Animals: male C57BL/6J mice;
Body weight range: 18.3-21.4 g

Setting [1] is: 20 min, read-out: change of food intake - compounds versus vehicle treated negative control, at 20 min.
Where [2] appears, read: 1 h, read-out: change of food intake - compounds versus vehicle treated negative control, at 1 h.
[3] abbreviates: 2 h, read-out: change of food intake - compounds versus vehicle treated negative control, at 2 h.
Setting [4] is: 4 h, read-out: change of food intake - compounds versus vehicle treated negative control, at 4 h.

Regarding `CC(C)(N)C(=O)N[C@H](Cc1c[nH]c2ccccc12)c1nnc(CCc2c[nH]c3ccccc23)n1Cc1cccc2ccccc12` [Compound 5, (R)-N-(1-(5-(2-(1H-indol-3-yl)ethyl)-4-(naphthalen-1-ylmethyl)-4H-1,2,4-triazol-3-yl)-2-(1H-indol-3-yl)ethyl)-2-amino-2-methylpropanamide], the change in vivo at 2 µmol/mouse runs as follows: under setting [1], -56%; under setting [2], -58%; under setting [3], -53%; under setting [4], -51%.

With `CC(C)(N)C(=O)N[C@H](Cc1c[nH]c2ccccc12)c1nnc(CCCc2c[nH]c3ccccc23)n1Cc1cccc2ccccc12` [Compound 11, (R)-N-(1-(5-(3-(1H-indol-3-yl)propyl)-4-(naphthalen-1-ylmethyl)-4H-1,2,4-triazol-3-yl)-2-(1H-indol-3-yl)ethyl)-2-amino-2-methylpropanamide], the change in vivo at 2 µmol/mouse under setting [1] was -56%, the change in vivo at 2 µmol/mouse under setting [2] was -65%, the change in vivo at 2 µmol/mouse under setting [3] was -55% and the change in vivo at 2 µmol/mouse under setting [4] is -55%.

Consider `CC(C)(N)C(=O)N[C@H](Cc1c[nH]c2ccccc12)c1nnc(CCc2ccccc2)n1Cc1cccc2ccccc12` [Compound 27, (R)-N-(2-(1H-indol-3-yl)-1-(4-(naphthalen-1-ylmethyl)-5-phenethyl-4H-1,2,4-triazol-3-yl)ethyl)-2-amino-2-methylpropanamide], for which the change in vivo at 2 µmol/mouse was -57% under setting [1], -58% under setting [2], -48% under setting [3] and -38% under setting [4].

On to `CC(C)(N)C(=O)N[C@H](Cc1c[nH]c2ccccc12)c1nnc(CCc2c[nH]c3ccccc23)n1Cc1ccc(Cl)c(Cl)c1` [Compound 28, (R)-N-(1-(5-(2-(1H-indol-3-yl)ethyl)-4-(3,4-dichlorobenzyl)-4H-1,2,4-triazol-3-yl)-2-(1H-indol-3-yl)ethyl)-2-amino-2-methylpropanamide], for which the change in vivo at 2 µmol/mouse reads like this: under setting [1], -17%; under setting [2], -28%; under setting [3], -21%; under setting [4], -18%.

`COc1ccc(Cn2c(CCc3c[nH]c4ccccc34)nnc2[C@@H](Cc2c[nH]c3ccccc23)NC(=O)C2CCNCC2)c(OC)c1` [Compound 31, (R)-N-(1-(5-(2-(1H-indol-3-yl)ethyl)-4-(2,4-dimethoxybenzyl)-4H-1,2,4-triazol-3-yl)-2-(1H-indol-3-yl)ethyl)piperidine-4-carboxamide]: the change in vivo at 2 µmol/mouse came to 50% under setting [1], 20% under setting [2], 16% under setting [3] and 9% under setting [4].

For the compound `Cc1ccc(Cn2c(CCc3ccccc3)nnc2[C@@H](Cc2c[nH]c3ccccc23)NC(=O)C(C)(C)N)cc1` [Compound 37, (R)-N-(1-(4-(4-methylbenzyl)-5-phenethyl-4H-1,2,4-triazol-3-yl)-2-(1H-indol-3-yl)ethyl)-2-amino-2-methylpropanamide], the change in vivo at 2 µmol/mouse is -37% under setting [1], -49% under setting [2], -51% under setting [3] and -34% under setting [4].

Consider `COc1ccc(Cn2c(CCc3c[nH]c4ccccc34)nnc2[C@@H](Cc2c[nH]c3ccccc23)NC(=O)C2CCNCC2)cc1` [Compound 45, (R)-N-(1-(5-(2-(1H-indol-3-yl)ethyl)-4-(4-methoxybenzyl)-4H-1,2,4-triazol-3-yl)-2-(1H-indol-3-yl)ethyl)piperidine-4-carboxamide], for which the change in vivo at 2 µmol/mouse by setting is: under setting [1], -36%; under setting [2], -28%; under setting [3], -33%; under setting [4], -34%.

On to `COc1ccc(Cn2c(CCc3ccccc3)nnc2[C@@H](Cc2c[nH]c3ccccc23)NC(=O)[C@@H]2CCCCN2)cc1` [Compound 48, (S)-N-((R)-1-(4-(4-methoxybenzyl)-5-phenethyl-4H-1,2,4-triazol-3-yl)-2-(1H-indol-3-yl)ethyl)piperidine-2-carboxamide], for which the change in vivo at 2 µmol/mouse is, setting by setting: under setting [1], -22%; under setting [2], -30%; under setting [3], -27%; under setting [4], -21%.

`COc1ccc(Cn2c(CCc3ccccc3)nnc2[C@@H](Cc2c[nH]c3ccccc23)NC(=O)[C@H]2CCCCN2)cc1` [Compound 49, (R)-N-((R)-1-(4-(4-methoxybenzyl)-5-phenethyl-4H-1,2,4-triazol-3-yl)-2-(1H-indol-3-yl)ethyl)piperidine-2-carboxamide]: the change in vivo at 2 µmol/mouse by setting is: under setting [1], -59%; under setting [2], -48%; under setting [3], -39%; under setting [4], -23%.

For the compound `COc1ccc(Cn2c(CCc3ccccc3)nnc2[C@@H](Cc2c[nH]c3ccccc23)NC(=O)C2CCNCC2)c(OC)c1` [Compound 62, (R)-N-(1-(4-(2,4-dimethoxybenzyl)-5-phenethyl-4H-1,2,4-triazol-3-yl)-2-(1H-indol-3-yl)ethyl)piperidine-4-carboxamide], the change in vivo at 2 µmol/mouse is, setting by setting: under setting [1], 56%; under setting [2], 68%; under setting [3], 50%; under setting [4], 26%.

Regarding `COc1ccc(Cn2c(CCc3ccccc3)nnc2[C@@H](Cc2c[nH]c3ccccc23)NC(=O)c2cnccn2)c(OC)c1` [Compound 66, (R)-N-(1-(4-(2,4-dimethoxybenzyl)-5-phenethyl-4H-1,2,4-triazol-3-yl)-2-(1H-indol-3-yl)ethyl)pyrazine-2-carboxamide], the change in vivo at 2 µmol/mouse was -56% under setting [1], -40% under setting [2], -45% under setting [3] and -51% under setting [4].

As for `CC(C)(N)C(=O)N[C@H](Cc1c[nH]c2ccccc12)c1nnc(CCc2ccccc2)n1CCc1ccccc1` [Compound 117, (R)-N-(1-(4,5-diphenethyl-4H-1,2,4-triazol-3-yl)-2-(1H-indol-3-yl)ethyl)-2-amino-2-methylpropanamide], the change in vivo at 2 µmol/mouse runs as follows: under setting [1], -31%; under setting [2], -24%; under setting [3], -11%; under setting [4], -6%.

As to `CC(C)(N)C(=O)N[C@H](Cc1c[nH]c2ccccc12)c1nnc(Cc2ccccc2)n1Cc1ccc(Cl)c(Cl)c1` [Compound 118, (R)-N-(1-(4-(3,4-dichlorobenzyl)-5-benzyl-4H-1,2,4-triazol-3-yl)-2-(1H-indol-3-yl)ethyl)-2-amino-2-methylpropanamide], the change in vivo at 2 µmol/mouse runs as follows: under setting [1], -31%; under setting [2], -30%; under setting [3], -25%; under setting [4], -24%.

As for `CC(C)(N)C(=O)N[C@H](Cc1c[nH]c2ccccc12)c1nnc(CCc2ccccc2)n1Cc1ccc(Cl)c(Cl)c1` [Compound 122, (R)-N-(1-(4-(3,4-dichlorobenzyl)-5-phenethyl-4H-1,2,4-triazol-3-yl)-2-(1H-indol-3-yl)ethyl)-2-amino-2-methylpropanamide], the change in vivo at 2 µmol/mouse reads like this: under setting [1], -52%; under setting [2], -42%; under setting [3], -28%; under setting [4], -16%.

For `O=C(N[C@H](Cc1c[nH]c2ccccc12)c1nnc(CCc2ccccc2)n1-c1ccccc1)C1CCNCC1` [Compound 142, N-((R)-2-(1H-indol-3-yl)-1-(5-phenethyl-4-phenyl-4H-1,2,4-triazol-3-yl)ethyl)piperidine-4-carboxamide], the change in vivo at 2 µmol/mouse under setting [1] was -56%, the change in vivo at 2 µmol/mouse under setting [2] was -57%, the change in vivo at 2 µmol/mouse under setting [3] was -55% and the change in vivo at 2 µmol/mouse under setting [4] is -49%.

With `COc1ccc(Cn2c(CCc3ccccc3)nnc2[C@@H](Cc2c[nH]c3ccccc23)NC(=O)C(C)(C)N)c(OC)c1` [Compound 179, N-((R)-1-(4-(2,4-dimethoxybenzyl)-5-phenethyl-4H-1,2,4-triazol-3-yl)-2-(1H-indol-3-yl)ethyl)-2-amino-2-methylpropanamide], the change in vivo at 2 µmol/mouse is, setting by setting: under setting [1], -25%; under setting [2], -39%; under setting [3], -40%; under setting [4], -38%.

Consider `COc1ccc(Cn2c(CCc3c[nH]c4ccccc34)nnc2[C@@H](Cc2c[nH]c3ccccc23)NC(=O)[C@@H]2C=CCN2)cc1` [Compound 190, (2S)-N-((R)-1-(5-(2-(1H-indol-3-yl)ethyl)-4-(4-methoxybenzyl)-4H-1,2,4-triazol-3-yl)-2-(1H-indol-3-yl)ethyl)-2,5-dihydro-1H-pyrrole-2-carboxamide], for which the change in vivo at 2 µmol/mouse was -39% under setting [1], -30% under setting [2], -33% under setting [3] and -30% under setting [4].
